From US20050234026A1, “Method and agent for inducing apoptosis/cell death in leukemia cells” (priority 2003, published 2005)
Where two headings read alike, the source gives them in different places.

Experiments:
[1] = system: CLL cells; experiment: Cytotoxicity of NOS inhibitors and NO quenchers/scavengers for freshly-isolated CLL cells in vitro; format: cell-based, human; details: for ED50 for CLL: Table 2, CLL cytotoxicity; for ED50 for CLL (mean ± SEM): CLL cytotoxicity, freshly-isolated patient cells in vitro; for EC50: read-out: EC50 (average concentration of compound that induced 50% CLL cell death), CLL cell death in vitro, ± SEM
[2] = biological target: pure human enzyme NOS3 (Homo sapiens, UniProt P29474); experiment: Kd for enzyme inhibition, pure human NOS3; format: biochemical
pure human enzyme NOS3, sequence (P29474 whole entry): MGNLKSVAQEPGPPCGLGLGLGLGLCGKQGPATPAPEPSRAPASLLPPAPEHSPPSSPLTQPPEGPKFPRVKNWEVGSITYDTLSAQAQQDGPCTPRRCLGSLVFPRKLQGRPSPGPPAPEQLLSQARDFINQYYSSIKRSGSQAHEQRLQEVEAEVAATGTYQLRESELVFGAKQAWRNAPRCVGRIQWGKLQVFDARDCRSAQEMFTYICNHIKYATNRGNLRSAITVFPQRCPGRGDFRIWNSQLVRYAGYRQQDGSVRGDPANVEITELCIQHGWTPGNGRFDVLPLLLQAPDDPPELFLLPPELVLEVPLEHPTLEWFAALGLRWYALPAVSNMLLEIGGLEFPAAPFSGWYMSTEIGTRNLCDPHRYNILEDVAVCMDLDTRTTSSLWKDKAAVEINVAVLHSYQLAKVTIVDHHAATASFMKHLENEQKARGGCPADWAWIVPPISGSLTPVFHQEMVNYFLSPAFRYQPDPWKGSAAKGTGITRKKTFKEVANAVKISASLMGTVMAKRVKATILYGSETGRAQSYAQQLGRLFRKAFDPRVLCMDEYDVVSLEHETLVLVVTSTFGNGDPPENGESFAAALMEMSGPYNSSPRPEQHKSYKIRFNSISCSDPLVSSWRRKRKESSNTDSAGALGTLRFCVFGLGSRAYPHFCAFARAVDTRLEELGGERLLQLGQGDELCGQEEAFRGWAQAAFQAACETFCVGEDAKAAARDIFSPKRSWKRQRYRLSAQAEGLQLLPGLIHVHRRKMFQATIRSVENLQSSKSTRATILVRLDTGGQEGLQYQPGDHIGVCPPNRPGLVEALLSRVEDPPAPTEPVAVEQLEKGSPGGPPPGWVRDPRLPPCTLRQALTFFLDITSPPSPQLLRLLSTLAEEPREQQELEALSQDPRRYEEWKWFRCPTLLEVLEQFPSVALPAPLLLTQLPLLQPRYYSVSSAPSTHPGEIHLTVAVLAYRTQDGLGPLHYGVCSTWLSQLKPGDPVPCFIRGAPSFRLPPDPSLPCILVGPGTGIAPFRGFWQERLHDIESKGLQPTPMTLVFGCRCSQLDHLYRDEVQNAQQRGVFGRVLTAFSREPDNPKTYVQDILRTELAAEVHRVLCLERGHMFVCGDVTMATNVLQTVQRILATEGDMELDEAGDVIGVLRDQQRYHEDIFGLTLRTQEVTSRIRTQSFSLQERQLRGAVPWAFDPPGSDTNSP

[3] = system: freshly-isolated CLL cells; experiment: Apoptosis and death of freshly-isolated CLL cells after exogenous NO donors and drugs; format: cell-based, human; details: for ID50, CLL cell apoptosis and death: acute addition
Text: We next wanted to examine CLL cells. These malignant cells differ in many ways from ANLL and normal hematopoietic. In addition to their different lineage, they are unique in that they have a very low growth […], exist primary in the G0 phase of the cell cycle, and have defective apoptosis. […] NO also synergized with the ara-guanosine prodrug 2-amino-9-[…]-D-6-methoxy araguanine (also called 506U78).

[4] = cited from earlier work
[5] = system: HL-60 and U937 cells; experiment: Growth inhibition of acute nonlymphocytic leukemia cell lines by NO donors; format: cell-based, human
Text: To more closely examine the mechanism of toxicity for myeloid leukemia cells, we did work to determine whether the rate of NO delivery affected its growth inhibition of acute nonlymphocytic leukemia cells. We also wanted to determine whether the NO inhibition of cell growth is associated induction of apoptosis. We treated HL-60 and U937 cells with three compounds that generate the same amount of NO but different rates. […] Furthermore, NO-induced growth inhibition was associated with apoptosis in a rate and concentration-dependent fashion (Reference 39).

[6] = normals and trials for septic shock and migraine; cited from earlier work
[7] = system: HL-60 myeloblastic leukemia cells; experiment: Growth of HL-60 myeloblastic leukemia cells under NO-delivering drugs; format: cell-based, human; details: NO delivered from the drug
Text: While studying NO and macrophages progressed in the late 1980s, we hypothesized that NO produced in the BM would be a modulator of normal and leukemic hematopoiesis. […] The differentiated cells were vacuolated, and had increased expression of nonspecific esterase, CD11 b, and CD14.

[8] = system: normal human BM cells; experiment: Colony formation of normal human bone marrow cells / CD34+ cells in methylcellulose; format: cell-based; details: normal human BM cells in methylcellulose with erythropoietin and colony stimulating factors
Method: The effects of NO on the growth and differentiation of normal human BM cells were analyzed (Reference 85). We felt that normal hematopoietic cells, like malignant hematopoietic cells, would be affected by NO. […] In retrospect, we think that the increase in CFU-GM by NO from SNP may be due to alterations in apoptosis secondary to changes in bcl-2 or caspases. None of the noted inhibitions were related to cGMP.

[9] = biological target: recombinant purified human NOS1 (Homo sapiens, UniProt P29475); experiment: Kd for enzyme inhibition, pure human NOS1; format: biochemical
recombinant purified human NOS1, sequence (P29475 whole entry): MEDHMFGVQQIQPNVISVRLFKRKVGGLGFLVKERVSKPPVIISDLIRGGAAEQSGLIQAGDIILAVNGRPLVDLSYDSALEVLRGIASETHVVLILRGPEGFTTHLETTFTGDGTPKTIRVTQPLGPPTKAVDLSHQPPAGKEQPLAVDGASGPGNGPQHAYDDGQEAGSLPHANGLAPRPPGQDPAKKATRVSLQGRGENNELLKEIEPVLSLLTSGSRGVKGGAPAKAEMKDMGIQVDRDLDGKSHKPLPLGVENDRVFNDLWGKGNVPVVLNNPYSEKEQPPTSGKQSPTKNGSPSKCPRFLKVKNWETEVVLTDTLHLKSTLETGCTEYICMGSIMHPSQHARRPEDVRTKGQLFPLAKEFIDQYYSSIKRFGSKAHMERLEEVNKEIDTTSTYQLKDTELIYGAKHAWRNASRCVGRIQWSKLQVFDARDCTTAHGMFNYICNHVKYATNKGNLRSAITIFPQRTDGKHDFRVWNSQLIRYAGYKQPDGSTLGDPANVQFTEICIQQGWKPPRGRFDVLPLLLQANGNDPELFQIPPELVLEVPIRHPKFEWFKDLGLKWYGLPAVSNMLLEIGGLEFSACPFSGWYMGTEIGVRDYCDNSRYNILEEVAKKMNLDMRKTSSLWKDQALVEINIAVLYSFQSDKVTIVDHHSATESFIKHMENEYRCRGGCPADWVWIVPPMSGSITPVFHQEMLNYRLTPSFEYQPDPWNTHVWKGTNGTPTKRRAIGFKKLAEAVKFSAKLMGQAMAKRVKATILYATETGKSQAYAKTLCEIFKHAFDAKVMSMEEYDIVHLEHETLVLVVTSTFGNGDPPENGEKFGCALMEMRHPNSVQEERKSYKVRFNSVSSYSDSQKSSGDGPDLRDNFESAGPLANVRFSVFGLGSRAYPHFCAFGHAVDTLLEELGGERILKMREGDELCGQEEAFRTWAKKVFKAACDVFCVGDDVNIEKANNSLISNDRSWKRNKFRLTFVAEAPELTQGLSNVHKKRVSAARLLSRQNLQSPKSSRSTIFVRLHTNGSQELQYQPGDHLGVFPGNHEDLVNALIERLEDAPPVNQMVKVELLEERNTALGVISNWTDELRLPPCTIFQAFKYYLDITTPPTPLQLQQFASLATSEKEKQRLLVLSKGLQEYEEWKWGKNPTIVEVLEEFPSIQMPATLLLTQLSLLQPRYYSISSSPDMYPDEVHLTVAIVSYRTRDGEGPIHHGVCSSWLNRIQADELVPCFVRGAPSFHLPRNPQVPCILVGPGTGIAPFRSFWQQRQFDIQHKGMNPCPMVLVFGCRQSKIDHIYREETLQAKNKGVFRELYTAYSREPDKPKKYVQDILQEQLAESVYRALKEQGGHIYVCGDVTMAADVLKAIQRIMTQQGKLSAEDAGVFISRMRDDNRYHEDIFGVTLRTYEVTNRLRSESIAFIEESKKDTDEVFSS

## Cc1ccnc(N)c1 [2-amino-4-methyl pyridine]
[1]
  ED50 for CLL: >2000 µM

## O=[N+]([O-])c1cccc2cn[nH]c12 [7-NI, 7-Nitroindazole]
[1]
  ED50 for CLL (mean ± SEM): 131 ± 23 µM
[1]; Homo sapiens
  EC50: 131 ± 23 µM

## Cl.Cl.N=C(Nc1ccc(CCNCc2cccc(Cl)c2)cc1)c1cccs1 [ARL-17477, N-[4-(2-{[(3-chlorophenyl)methyl]amino}ethyl)phenyl]-2-thiophenecarboximide dihydrochloride]
[2]
  Kd: 1 µM
[1]
  ED50 for CLL (mean ± SEM): 11 ± 2 µM
  ED50 for CLL: 11 µM
  EC50: 11 ± 2 µM

## CC1(C)N([O])C(c2ccc(C(=O)O)cc2)=[N+]([O-])C1(C)C [Carboxy-PTIO, 2-(4-Carboxyphenyl)-4,4,5,5-tetramethylimidazoline-1-oxyl-3-oxide]
[1]
  ED50 for CLL (mean ± SEM): 227 ± 31 µM
  EC50: 227 ± 31 µM

## NCCN(CCN)/[N+]([O-])=N/O [DETA-NO]
[3]; combination with fludarabine
  Interaction with fludarabine in killing CLL cells: acted synergistically
[3]; freshly-isolated CLL cells
  ID50, CLL cell apoptosis and death: 188 µM
[3]; with 5-fluorouracil, gemcitabine, doxorubicin, chlorambucil or SN-38
  Interaction with other agents in killing CLL cells: did not enhance the activity
[4]
  half-life of NO delivery: 1200 min
[5]
  Inhibition of leukemia cell and colony growth (rank): most potent inhibitor

## NCCNCCN [DETA]
[3]; freshly-isolated CLL cells
  Effect on CLL cells (control for NO dependence): had no effects

## C/C1=C2/[N-][C@H]([C@H](CC(N)=O)[C@@]2(C)CCC(=O)NC[C@@H](C)OP(=O)([O-])O[C@H]2[C@@H](O)[C@@H](n3cnc4cc(C)c(C)cc43)O[C@@H]2CO)[C@]2(C)N=C(/C(C)=C3N=C(/C=C4N=C1[C@@H](CCC(N)=O)C\4(C)C)[C@@H](CCC(N)=O)[C@]\3(C)CC(N)=O)[C@@H](CCC(N)=O)[C@]2(C)CC(N)=O.[Co+3].[OH-] [Hydroxocobalamin]
[1]
  ED50 for CLL (mean ± SEM): 148 ± 46 µM
  EC50: 148 ± 46 µM

## CNC(=N)NCCC[C@H](N)C(=O)O [L-N^G-monomethylarginine]
[1]
  ED50 for CLL: >2000 µM
[6]
  Effects on cardiovascular, liver, or hematopoietic function: no major effects

## NC(=N[N+](=O)[O-])NCCCC(N)C(=O)O [L-N^G-nitroarginine]
[1]
  ED50 for CLL: >2000 µM

## CNCCCCCCN(C)/[N+]([O-])=N/O [MAMA-NO]
[3]; freshly-isolated CLL cells
  ID50, CLL cell apoptosis and death: 1658 µM
[4]
  half-life of NO delivery: 2 min

## CCCN(CCCN)/[N+]([O-])=N/O [PAPA-NO]
[3]; freshly-isolated CLL cells
  ID50, CLL cell apoptosis and death: 850 µM
[4]
  half-life of NO delivery: 30 min

## [NH-]c1c[n+](N2CCOCC2)no1 [SIN-1]
[7]
  Growth of HL-60 cells: potently inhibited
[8]
  Development of marrow colonies: inhibited

## FC(F)(F)c1ccccc1-n1ccnc1 [TRIM, 1-(2-Trifluoromethylphenyl)imidazole]
[1]
  ED50 for CLL (mean ± SEM): 445 ± 46 µM
[1]; Homo sapiens
  EC50: 445 ± 46 µM

## C=CCC(=N)NCCC[C@H](N)C(=O)O [Vinyl-L-NIO, N^5-(1-imino-3-butenyl)-L-ornithine]
[1]
  ED50 for CLL (mean ± SEM): 747 ± 126 µM
  ED50 for CLL: 747 µM
[1]; Homo sapiens
  EC50: 747 ± 126 µM
[9]
  Kd: 0.1 µM

## Nc1nc(F)nc2c1ncn2[C@@H]1O[C@H](CO)[C@@H](O)[C@@H]1O [fludarabine]
[3]; freshly-isolated CLL cells
  ID50, CLL cell apoptosis and death: 2 µM

## S-nitrosoacetylpenicillamine [SNAP]
[7]
  Growth of HL-60 cells: potently inhibited
[8]
  Development of marrow colonies: inhibited
